# Assay results taken from patent publication US12606543B2, “Indole derivatives as serotonergic agents useful for the treatment of disorders related thereto” (priority 2023, dated 2026).
# Read-outs that look alike come from different tables or passages of the source.
# Columns and labels:
# human 5-HT2C receptor = target: T1, human 5-HT2C receptor (Homo sapiens, UniProt P28335); test: cell-based; details: calcium mobilization FLIPR
# T1 construct: expressed in transfected cells; host or cells: U2OS
# T1 sequence (P28335 33-458): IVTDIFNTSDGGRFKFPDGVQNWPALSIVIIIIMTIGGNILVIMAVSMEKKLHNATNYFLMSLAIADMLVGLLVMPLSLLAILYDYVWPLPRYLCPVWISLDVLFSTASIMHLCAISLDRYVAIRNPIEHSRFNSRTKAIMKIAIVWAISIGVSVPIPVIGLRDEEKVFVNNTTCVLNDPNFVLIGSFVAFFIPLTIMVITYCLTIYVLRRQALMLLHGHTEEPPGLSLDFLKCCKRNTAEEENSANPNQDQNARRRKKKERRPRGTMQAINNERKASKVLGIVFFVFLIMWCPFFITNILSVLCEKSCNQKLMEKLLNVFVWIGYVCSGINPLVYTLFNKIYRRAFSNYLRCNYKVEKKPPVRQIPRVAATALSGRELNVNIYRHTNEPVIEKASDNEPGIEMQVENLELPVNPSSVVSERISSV
# human 5-HT2B receptor = human 5-HT2B receptor (Homo sapiens, UniProt P41595); test: Human 5-HT2B radioligand binding assay ([3H]-LSD)
# Chain of human 5-HT2B receptor (P41595 whole entry): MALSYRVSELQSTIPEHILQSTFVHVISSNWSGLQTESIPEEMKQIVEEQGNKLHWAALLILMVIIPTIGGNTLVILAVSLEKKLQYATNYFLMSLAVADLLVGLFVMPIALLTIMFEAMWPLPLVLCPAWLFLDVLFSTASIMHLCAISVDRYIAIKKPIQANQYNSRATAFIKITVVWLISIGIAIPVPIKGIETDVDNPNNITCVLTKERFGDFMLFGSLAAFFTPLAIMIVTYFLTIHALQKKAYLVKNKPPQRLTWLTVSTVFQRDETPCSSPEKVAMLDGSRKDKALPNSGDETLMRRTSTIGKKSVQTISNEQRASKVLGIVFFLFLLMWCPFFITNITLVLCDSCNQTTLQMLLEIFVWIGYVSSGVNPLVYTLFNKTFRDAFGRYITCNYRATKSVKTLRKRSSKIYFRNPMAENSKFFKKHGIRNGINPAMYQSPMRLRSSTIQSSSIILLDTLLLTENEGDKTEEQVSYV
# Experimental: The objective of this study was to evaluate the binding properties of test compounds on 5-HT2B.
# 1) The assay buffer was prepared following Table 29 below.
# 2) Eight doses of reference and test compounds starting from 10 mM stock solution as requested by 5-fold serial dilutions with 100% (v/v) DMSO.
# 3) UniFilter-96 GF/B plate was pretreated: • a. 50 μL/well of 0.5% (v/v) PEI to UniFilter-96 GF/B plates. The plates were sealed and incubated at 4° C. for 3 hrs. • b. After incubation, the plates were washed 3 times with ice-cold wash buffer (50 mM Tris, pH 7.4).
# 4) Assay plate preparation: • a. Cell membrane was diluted with assay buffer and 330 μL/well added to 96 round deep well plates to reach a concentration of 1 unit/well. • b. Eight concentrations of reference or test compounds were prepared and 110 μL/well added to 96 round deep well plates. • c. [3H]-LSD was diluted with assay buffer to 5 nM (5× final concentration) and 110 μL/well was added to 96 round deep well plates.
# 5) The plate was centrifuged at 1000 rpm for 30 secs and then agitated at 600 rpm at room temperature for 5 mins.
# 6) The plates were sealed and incubated at 37° C. for 90 mins.
# 7) The incubation was stopped by vacuum filtration onto GF/B filter plates followed by washing four times with ice-cold wash buffer (50 mM Tris, pH7.4).
# 9) The filter plates were sealed and 40 μL/well of scintillation cocktail was added.
# 10) The plate was read using a Microbeta2 microplate counter.
# For reference and test compounds, the results are expressed as % Inhibition, using the normalization equation: N=100−100×(U−C2)/(C1−C2), where U is the unknown value, C1 is the average of high controls, and C2 is the average of low controls. The IC50 is determined by fitting percentage of inhibition as a function of compound concentrations with Hill equation.
# The objective of this study is to evaluate the binding properties of test compounds on 5-HT2B.
# 1) The assay buffer was prepared following Table 59 below.
# 3) UniFilter-96 GF/B plate was pretreated: • a. 50 μL/well of 0.5% (v/v) PEI to UniFilter-96 GF/B plates. The plates were sealed and incubate at 4° C. for 3 hrs. • b. After incubation, the plates were washed three times with ice-cold wash buffer (50 mM Tris, pH7.4).
# 5) The plate was centrifuged at 1000 rpm for 30 secs and then agitated at 600 rpm at room temperature for 5 min.
# 8) The plates were dried at 37° C. for 45 mins.
# 10) The plate was read using a Microbeta^2 microplate counter.
# For reference and test compounds, the results are expressed as % Inhibition, using the normalization equation: N=100−100×(U−C2)/(C1−C2), where U is the unknown value, C1 is the average of the high controls, and C2 is the average of the low controls. The IC50 is determined by fitting percentage of inhibition as a function of compound concentrations with Hill equation.
# [1] = Pharmacokinetic studies in rat (i.v.); format: in vivo; details: male, Sprague-Dawley, plasma, iv, 1.19 mg/kg, rat plasma; for half-life / AUC(0-t): i.v. 1.19 mg/kg; for concentration at 0.25 h / concentration at 1 h / concentration at 4 h: i.v., dose 1.19 mg/kg
# Experimental: Animals: Male Sprague-Dawley rats (˜225-350 g) from Charles River Labs were acclimatized for a minimum of 5 days prior to start of study procedures. Body weights were recorded on the day of dosing.
# Any abnormalities were documented including presence/absence of wet dog shakes/back muscle contractions (WDS/BMC).
# Dosing: Formulations were administered intravenously (i.v.) via the tail vein using a 25 G needle connected to a 1 cc syringe.
# The exemplary compounds of Formula (I) were freshly prepared at the appropriate concentrations in 5% Tween-80 in saline.
# Blood collection time (h): 0, […], 1 and 4
# Volume/time-point: ˜0.25 mL (saphenous vein)
# Instrumentation: AB Sciex QTRAP 4000 or 6500 MS/MS system equipped with an LC system with a binary pump, a solvent degasser, a thermostated column compartment, and a multiplate autosampler.
# Analysis software: Phoenix® WinNonlin® 8.3 (Pharsight, Certara, Mountainview, CA).
# Analysis methods: non-compartmental analysis, linear up/log down trapezoidal rule.
# PK parameters: t1/2 and AUC0-tlast was estimated.
# The Compounds of Formula (I) were freshly prepared at the appropriate concentrations in 5% Tween-80 in saline.
# Instrumentation: AB Sciex QTRAP 4000 or 6500 MS/MS system equipped with an LC system with a binary pump, a solvent degasser, a thermostated column compartment and a multiplate autosampler.
# PK parameters: t1/2 and AUC0-tlast will be estimated.
# [2] = Plasma protein binding by equilibrium dialysis, dog; format: in vitro ADME; details: Dog plasma, 1 μM
# Experimental: The final concentration of compound was 1 μM. The final concentration of DMSO was 0.5%. Ketoconazole was used as positive control in the assay.
# The assay was performed in duplicate.
# All calculations were carried out using Microsoft Excel. […] The percentages of bound compound were calculated as follows: […]
# Ketoconazole was used as positive control in the assay.
# [3] = mean of 3 rats, read-out: Plasma concentration, Mean ± SD
# [4] = rat R01, read-out: Plasma concentration, R01
# [5] = rat R02, read-out: Plasma concentration, R02
# [6] = rat R03, read-out: Plasma concentration, R03
smiles,measurement,setting,value
"CSc1ccc2[nH]cc(C[C@H]3CCCN3C)c2c1 [(R) I-1, (R)-3-((1-Methylpyrrolidin-2-yl)methyl)-5-(methylthio)-1H-indole]",Emax (% of serotonin),"human 5-HT2C receptor; U2OS cells, relative to maximum response of serotonin",95.27 % of serotonin
same,EC50,human 5-HT2C receptor; stably transfected U2OS cells,0.6 nM
same,IC50,human 5-HT2B receptor,19 nM
same,Ki,human 5-HT2B receptor,9.82 nM
same,half-life,"[1]; mean of 3 rats, estimated from 2 points only, read-out: Apparent t1/2, Mean ± SD (converted)",47.1 ± 10.4 min
same,AUC(0-t),"[1]; mean of 3 rats, read-out: AUC0-tlast, Mean ± SD",136 ± 22 ng·h/mL
same,half-life,"[1]; rat R01, estimated from 2 points only, read-out: Apparent t1/2, R01 (converted)",58.5 min
same,AUC(0-t),"[1]; rat R01, read-out: AUC0-tlast, R01",151 ng·h/mL
same,half-life,"[1]; rat R02, estimated from 2 points only, read-out: Apparent t1/2, R02 (converted)",37.9 min
same,AUC(0-t),"[1]; rat R02, read-out: AUC0-tlast, R02",111 ng·h/mL
same,half-life,"[1]; rat R03, estimated from 2 points only, read-out: Apparent t1/2, R03 (converted)",44.9 min
same,AUC(0-t),"[1]; rat R03, read-out: AUC0-tlast, R03",147 ng·h/mL
same,concentration at 0.25 h,[1]; [3],109 ± 12.9 ng/mL
same,concentration at 0.25 h,[1]; [4],120 ng/mL
same,concentration at 0.25 h,[1]; [5],112 ng/mL
same,concentration at 0.25 h,[1]; [6],94.7 ng/mL
same,concentration at 1 h,[1]; [3],46.1 ± 18.1 ng/mL
same,concentration at 1 h,[1]; [4],42.3 ng/mL
same,concentration at 1 h,[1]; [5],30.3 ng/mL
same,concentration at 1 h,[1]; [6],65.8 ng/mL
same,concentration at 4 h,[1]; [3],3.96 ± 2.8 ng/mL
same,concentration at 4 h,[1]; [4],7.04 ng/mL
same,concentration at 4 h,[1]; [5],1.56 ng/mL
same,concentration at 4 h,[1]; [6],3.27 ng/mL
same,"recovery at 6 h, 1 µM","[2]; Beagle, dog, equilibrium dialysis 6 hours",92.9%
same,"fraction unbound at 6 h, 1 μM","[2]; Beagle, equilibrium dialysis 6 hours, 37° C., read-out: % Bound (converted)",0.174
same,% Remaining @ 6 hours,"[2]; 6 hours, 37° C.",95.50%
